Assay results: patent US20190153024A1, “NOVEL SALTS AND POLYMORPHS OF SCY-078” (priority 2015, published 2019)
Converted amounts (≈) assume the structure as drawn. Values belong to the molecule of their own block, whether it stands above or below them.

Columns and labels:
[1] = Kinetic solubility of trifluoroacetate Types A and B and HCl Type I (alternative procedure: SGF, FaSSIF and FeSSIF alternative media, acetate pH 5.5, phosphate pH 6.0 alternative media); conditions: for Form change: residual solid by XRPD
Method: An alternative media (“FaSSIF alternative media”) was used to study the trifluoroacetate salts (Type A and B) and the HCl Type I salt. More specifically, the media was prepared by weighing 0.17 g of sodium phosphate monobasic (NaH2PO4, anhydrous), 0.021 g of sodium hydroxide, and 0.31 g of sodium chloride into a 50-mL volumetric flask and was dissolve with approximately 48 mL of purified water. The pH was adjusted to exactly 6.5 using 1 M HCl or 1 M NaOH and diluted to volume with purified water. 0.11 g of SIF powder was then added, stirred and sonicated until all the powder was completely dissolved. The solution was equilibrated for 2 hours at RT before use. The solution can be stored at RT for 48 hours or 4° C. for 7 days and should be equilibrated to RT before use
An alternative media (“FeSSIF alternative media”) was used to study the trifluoroacetate salts (Type A and B) and the HCl Type I salt. More specifically, the media was prepared by transferring 0.41 mL of glacial acid and weighing 0.20 g of sodium hydroxide, 0.59 g of sodium chloride into a 50-mL volumetric flask. This was dissolved with approximately 48 mL of purified water. The pH was adjusted to exactly 5.0 using 1 M HCl or 1 M NaOH and diluted to volume with purified water. 0.56 g of SIF powder was added, stirred and sonicated until all the powder is completely dissolved. The solution can be stored at RT for 48 hours or 4° C. for 7 days and should be equilibrated to RT before use.
Acetate Buffer (pH 5.5) Preparation—The acetate buffer (pH 5.5) used for the trifluoroacetate salts (Type A and B) and the HCl Type I salt was prepared by placing 0.60 g sodium acetate (NaC2H3O2.3H2O) in a 100-mL volumetric flask, adding 3 mL of 2 M acetic acid solution, and then adding purified water to volume.
An alternative media (“phosphate (pH 6.0) alternative media”) was used to study the trifluoroacetate salts (Type A and B) and the HCl Type I salt. More specifically, the media was prepared by dissolving 2.72 g of 0.2 M monobasic potassium phosphate (KH2PO4) in purified water, and diluting with purified water t 100 mL. 0.8 g of 0.2 M sodium hydroxide in purified water was diluted with purified water to 100 mL. Then 50 mL of the 0.2 M monobasic potassium phosphate solution was placed in a 200-mL volumetric flask, 5.6 mL of 0.2 M sodium hydroxide solution was added, and then purified water was added to volume.
The trifluoroacetate salts (Type A and B) and the HCl Type I salt were tested using the following alternative procedure. First, 15 mg, 36 mg or 90 mg solid was weighted into a 4-mL plastic tube, and 3 mL of relevant media was added before leaving the suspension on a rolling incubator (25 r/min). For SCF, 90 mg of solid was used. For FaSSIF, acetate buffer (pH 5.5), and phosphate buffer (pH 6.0), 15 mg solid was used. For FeSSIF, 36 mg of solid was used. 1.0 mL aliquot of the suspension was sampled for centrifugation with the supernatant submitted for HPLC and pH measurement and solid for XRPD characterization at 1 hr, 4 hr and/or 24 hrs.
The solubility of trifluoroacetate Type A, Type B and HCl Type I was measured in SGF at ambient temperature. Approximately 90 mg of solid sample was weighted into a 4-mL centrifuge tube, and 3 mL of SGF buffer was added before leaving the suspension on a rolling incubator (25 r/min). 1.0 mL aliquot of the suspension was sampled for centrifugation (10000 rpm, 3 mins) the supernatant was analyzed by HPLC and pH measurement and solid by XRPD characterization at 1 hr, 4 hr and 24 hrs, respectively.
The solubility of trifluoroacetate Type A, Type B and hydrochloride Type I was measured in the FaSSIF alternative media at ambient temperature. Approximately 15 mg of solid sample was weighted into a 4-mL plastic tube, and 3 mL of the media was added before leaving the suspension on a rolling incubator (25 r/min).

[2] = Dynamic Vapor Sorption (DVS) water uptake; assay type: physicochemical; conditions: for solid form by XRPD after DVS: after DVS experiment
Method: Dynamic Vapor Sorption (DVS)—The term “DVS” means the procedure described in below. The relative humidity at 25° C. was calibrated against deliquescence point of LiCl, Mg(NO3)2 and KCl.
The DVS of SCY-078 salts were tested according to the above method, using a 10-20 mg sample size. The DVS was measured using a Surface Measurement Systems (SMS) DVS Intrinsic.

[3] = Physical and chemical stability of trifluoroacetate Types A and B and HCl Type I for 1, 2, 4 and 8 weeks; assay type: physicochemical
Method: High Power Liquid Chromatography (HPLC) Method—An Agilent 1260 HPLC with DAD detector was utilized to test solubility or to test purity and stability. […] System suitability was tested by injecting standard solutions five times in each sample sequence, and the relative standard deviation of the peak areas was less than 2%.
Physical and chemical stability evaluation of trifluoroacetate Type A, trifluoroacetate Type B, and HCl Type I was performed at 25° C./60% RH, 40° C./75% RH and 60° C. for 1, 2, 4 and 8 weeks. In the experiments, approximately 20 mg of solid was placed into a 1.5-mL glass vial. The vials were stored under 25° C./60% RH (uncapped), 40° C./75% RH (uncapped) and 60° C. (capped) conditions for 8 weeks. XRPD analysis was then employed to check the crystalline form of the solid, and HPLC was utilized to determine the purity profile at 1, 2, 4 and 8 weeks. […] The solid form change of trifluoroacetate Type A at 2 and 4 weeks was postulated to the air-exposure when the sample was taken out for XRPD characterization.

[4] = Approximate solubility in solvents at room temperature; assay type: physicochemical; conditions: 25 °C, thermodynamic from solid
Method: Approximate solubility of SCY-078 salts—The term “approximate solubility” with respect to SCY-078 salts means the procedure described in this paragraph. To conduct each experiment, a sample of a SCY-078 salt (˜2 mg) was added into a 3-mL glass vial. Then a solvent was added step-wise (100 μL per step) into the vials until the solids were dissolved or a total volume of 2 mL was reached.
First, MeOH desolvate (˜2 mg) was added to a 3-mL glass vial. Then the corresponding solvent was added step wise (100 μL) until the solution was visually clear or a total volume of 2 mL was reached.

[5] = 25° C./60% RH (uncapped), 1 week
[6] = 25° C./60% RH (uncapped), 2 weeks
[7] = 25° C./60% RH (uncapped), 4 weeks
[8] = 25° C./60% RH (uncapped), 8 weeks
[9] = 40° C./75% RH (uncapped), 1 week
[10] = 40° C./75% RH (uncapped), 2 weeks
[11] = 40° C./75% RH (uncapped), 4 weeks
[12] = 40° C./75% RH (uncapped), 8 weeks

Structure (SMILES): CC(C)[C@@H](C)[C@@]1(C)CC[C@]2(C)[C@H]3CC[C@@H]4[C@@]5(COC[C@]4(C)[C@@H](OC[C@](C)(N)C(C)(C)C)[C@H](n4ncnc4-c4ccncc4)C5)C3=CC[C@@]2(C)[C@@H]1C(=O)O.Cl [SCY-078 HCl Type I]
Form change ([1]; FaSSIF alternative media, 1 hr): No
Form change ([1]; FaSSIF alternative media, 4 hrs): No
Form change ([1]; FaSSIF alternative media, 24 hrs): No
form change of residual solid in FaSSIF alternative media ([1]; FaSSIF alternative media, ambient temperature): no form change was observed
Form change ([1]; FeSSIF alternative media, 1 hr): No
Form change ([1]; FeSSIF alternative media, 4 hrs): No
Form change ([1]; FeSSIF alternative media, 24 hrs): No
form change of residual solid in FeSSIF alternative media ([1]; FeSSIF alternative media, ambient temperature): no form change was observed
Form change ([1]; SGF, 1 hr): No
Form change ([1]; SGF, 4 hrs): No
Form change ([1]; SGF, 24 hrs): No
form change of residual solid in SGF ([1]; SGF, ambient temperature): no form change was observed
form change of residual solid in acetate buffer ([1]; acetate buffer pH 5.5, ambient temperature): converted to Type II
solubility in acetate buffer (comparison) ([1]; acetate buffer pH 5.5, ambient temperature, 4 hr and 24 hrs): lower solubility
Form change ([1]; phosphate (pH 6.0) alternative media, 4 hrs): No
Form change ([1]; phosphate (pH 6.0) alternative media, 24 hrs): No
form change of residual solid in phosphate (pH 6.0) alternative media ([1]; phosphate (pH 6.0) alternative media, ambient temperature): No form change was observed
solubility in phosphate (pH 6.0) alternative media (comparison) ([1]; phosphate (pH 6.0) alternative media, ambient temperature, 4 hr and 24 hrs): higher solubility
water uptake (DVS) ([2]; 25° C./80% RH): 6.1 wt %
solid form by XRPD after DVS [2]: No form change
HPLC purity [3, 5]: 99.9%
Solid form [3, 5]: Type I
HPLC purity [3, 6]: 99.9%
Solid form [3, 6]: Type I
HPLC purity [3, 7]: 99.9%
Solid form [3, 7]: Type I
HPLC purity [3, 8]: 99.9%
Solid form [3, 8]: Type I
physical and chemical stability ([3]; 25° C./60% RH, 40° C./75% RH and 60° C., 8 weeks): physically and chemically stable
HPLC purity [3, 9]: 99.9%
Solid form [3, 9]: Type I
HPLC purity [3, 10]: 99.9%
Solid form [3, 10]: Type I
HPLC purity [3, 11]: 99.9%
Solid form [3, 11]: Type I
HPLC purity [3, 12]: 99.9%
Solid form [3, 12]: Type I
HPLC purity ([3]; 60° C. (capped), 1 week): 99.9%
Solid form ([3]; 60° C. (capped), 1 week): Type I
HPLC purity ([3]; 60° C. (capped), 2 weeks): 99.9%
Solid form ([3]; 60° C. (capped), 2 weeks): Type I
HPLC purity ([3]; 60° C. (capped), 4 weeks): 99.9%
Solid form ([3]; 60° C. (capped), 4 weeks): Type I
HPLC purity ([3]; 60° C. (capped), 8 weeks): 99.9%
Solid form ([3]; 60° C. (capped), 8 weeks): Type I
Initial HPLC purity ([3]; Initial): 99.9%

Structure (SMILES): CC(C)[C@@H](C)[C@@]1(C)CC[C@]2(C)[C@H]3CC[C@@H]4[C@@]5(COC[C@]4(C)[C@@H](OC[C@](C)(N)C(C)(C)C)[C@H](n4ncnc4-c4ccncc4)C5)C3=CC[C@@]2(C)[C@@H]1C(=O)O [SCY-078 amorphous freebase]
water uptake (DVS) ([2]; 25° C., 80% RH): ~4.8%
solid form by XRPD after DVS [2]: no form change

solubility ([4]; organic solvent or mixture, 1,4-Dioxane, RT): > 37 mg/mL
solubility ([4]; organic solvent or mixture, 2-MeTHF, RT): > 25 mg/mL
solubility ([4]; organic solvent or mixture, Acetic Acid, RT): > 25 mg/mL
solubility ([4]; organic solvent or mixture, Acetone, RT): 8.3 to 12.5 mg/mL (≈ 11.4 to 17.1 mM)
solubility ([4]; organic solvent or mixture, CHCl3, RT): > 33 mg/mL
solubility ([4]; organic solvent or mixture, DMA, RT): > 40 mg/mL
solubility ([4]; organic solvent or mixture, DMSO, RT): > 32 mg/mL
solubility ([4]; organic solvent or mixture, EtOAc, RT): > 23 mg/mL
solubility ([4]; organic solvent or mixture, EtOH, RT): 2.6 to 3 mg/mL (≈ 3.56 to 4.11 mM)
solubility ([4]; organic solvent or mixture, Heptane, RT): < 2.2 mg/mL
solubility ([4]; organic solvent or mixture, IPA, RT): 7 to 11 mg/mL (≈ 9.59 to 15.1 mM)
solubility ([4]; organic solvent or mixture, MIBK, RT): > 29 mg/mL
solubility ([4]; organic solvent or mixture, MTBE, RT): > 23 mg/mL
solubility ([4]; organic solvent or mixture, MeOH, RT): 5.4 to 6.3 mg/mL (≈ 7.4 to 8.63 mM)
solubility ([4]; organic solvent or mixture, NMP, RT): > 45 mg/mL
solubility ([4]; organic solvent or mixture, THF, RT): > 23 mg/mL
solubility ([4]; organic solvent or mixture, Toluene, RT): 6.8 to 8.5 mg/mL (≈ 9.31 to 11.6 mM)
solubility ([4]; organic solvent or mixture, iPrOAc, RT): 10.5 to 21 mg/mL (≈ 14.4 to 28.8 mM)
solubility ([4]; acetonitrile (ACN), organic solvent or mixture, ACN, RT): 2.6 to 2.9 mg/mL (≈ 3.56 to 3.97 mM)
solubility ([4]; water (H2O), water, H2O, RT): < 1.9 mg/mL
Structure (SMILES): CC(C)[C@@H](C)[C@@]1(C)CC[C@]2(C)[C@H]3CC[C@@H]4[C@@]5(COC[C@]4(C)[C@@H](OC[C@](C)(N)C(C)(C)C)[C@H](n4ncnc4-c4ccncc4)C5)C3=CC[C@@]2(C)[C@@H]1C(=O)O [SCY-078, (1S,4aR,6aS,7R,8R,10aR,10bR,12aR,14R,15R)-15-[[(2R)-2-amino-2,3,3-trimethylbutyl]oxy]-8-[(1R)-1,2-dimethylpropyl]-14-[5-(4-pyridinyl)-1H-1,2,4-triazol-1-yl]-1,6,6a,7,8,9,10,10a,10b,11,12,12a-dodecahydro-1,6a,8,10a-tetramethyl-4H-4a-propano-2H -phenanthro[1,2-c]pyran-7-carboxylic acid]
